According to the supplement of paper PMC10627819:

Legend:
[1] = test system: S. aureus Newman; assay: Bliss interaction score (quartile over a dose matrix) (fitness difference); higher = more antagonism (negative = synergy)
In short: (§1)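 The Bliss score is observed minus expected fitness under the product model, reported as quartiles over technical, biological and donor/recipient replicates. Fitness is the OD595 at entry into stationary phase divided by the plate's robust no-drug mean and capped at 1. Single-drug fitness was inferred from combination data.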

[2] = test system: B. subtilis 168; assay: as above
In short: as §1

[3] = test system: S. aureus DSM 20231; assay: as above
In short: as §1

[4] = test system: S. pneumoniae D39V; assay: as above
In short: as §1

[5] = test system: S. aureus Newman; assay: fitness (endpoint OD595 vs no drug) (fraction); higher = more growth
In short: (§2)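 Fitness is computed from the optical density at which cultures reach stationary phase, divided by the robust mean of no-drug control wells. Any value above 1 is set to 1. Cultures started at OD595 0.01 in 384-well plates with TSB, LB Lennox or CY at 37 °C, and OD595 was read every 30 min for 14 h against a first-reading background.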

[6] = test system: B. subtilis 168; assay: as above
In short: as §2

[7] = test system: S. pneumoniae D39V; assay: as above
In short: as §2

[8] = first compound 1.562 µg/mL, partner 0.039 µg/mL
[9] = first compound 1.562 µg/mL, partner 0.078 µg/mL
[10] = first compound 1.562 µg/mL, partner 0.156 µg/mL
[11] = first compound 3.124 µg/mL, partner 0.039 µg/mL
[12] = first compound 3.124 µg/mL, partner 0.078 µg/mL
[13] = first compound 3.124 µg/mL, partner 0.156 µg/mL
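Wherever Bliss interaction score (quartile over a dose matrix) is given: first quartile when negative (synergy) and third quartile when positive (antagonism).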

C[C@@H]1O[C@@H]1P(=O)(O)O [Fosfomycin] + CN(C)c1cc(NC(=O)CNC(C)(C)C)c(O)c2c1C[C@H]1C[C@H]3[C@H](N(C)C)C(O)=C(C(N)=O)C(=O)[C@@]3(O)C(O)=C1C2=O [Tigecycline]
Bliss interaction score [1]: -0.0631
Bliss interaction score [2]: -0.0396
Bliss interaction score [3]: 0.044
Bliss interaction score [4]: 0.0555
fitness ([5]; first compound 0.781 µg/mL, partner 0.039 µg/mL): 0.558
fitness ([5]; first compound 0.781 µg/mL, partner 0.078 µg/mL): 0.57
fitness ([5]; first compound 0.781 µg/mL, partner 0.156 µg/mL): 0.593
fitness [5, 8]: 0.47
fitness [5, 9]: 0.504
fitness [5, 10]: 0.518
fitness [5, 11]: 0.177
fitness [5, 12]: 0.188
fitness [5, 13]: 0.184
fitness [6, 8]: 0.76
fitness [6, 9]: 0.746
fitness ([6]; first compound 1.562 µg/mL, partner 0.125 µg/mL, one replicate): 0.833
fitness [6, 10]: 0.713
fitness ([6]; first compound 1.562 µg/mL, partner 0.25 µg/mL, one replicate): 0.819
fitness ([6]; first compound 1.562 µg/mL, partner 0.5 µg/mL, one replicate): 0.753
fitness [6, 11]: 0.655
fitness [6, 12]: 0.598
fitness ([6]; first compound 3.124 µg/mL, partner 0.125 µg/mL, one replicate): 0.771
fitness [6, 13]: 0.595
fitness ([6]; first compound 3.124 µg/mL, partner 0.25 µg/mL, one replicate): 0.662
fitness ([6]; first compound 3.124 µg/mL, partner 0.5 µg/mL, one replicate): 0.683
fitness ([6]; first compound 6.248 µg/mL, partner 0.039 µg/mL): 0.52
fitness ([6]; first compound 6.248 µg/mL, partner 0.078 µg/mL): 0.488
fitness ([6]; first compound 6.248 µg/mL, partner 0.125 µg/mL, one replicate): 0.576
fitness ([6]; first compound 6.248 µg/mL, partner 0.156 µg/mL): 0.492
fitness ([6]; first compound 6.248 µg/mL, partner 0.25 µg/mL, one replicate): 0.537
fitness ([6]; first compound 6.248 µg/mL, partner 0.5 µg/mL, one replicate): 0.568
fitness ([7]; first compound 1.25 µg/mL, partner 0.325 µg/mL): 0.929
fitness ([7]; first compound 1.25 µg/mL, partner 0.65 µg/mL): 0.921
fitness ([7]; first compound 1.25 µg/mL, partner 1.3 µg/mL): 0.942
fitness ([7]; first compound 1.25 µg/mL, partner 2.6 µg/mL): 0.921
fitness ([7]; first compound 2.5 µg/mL, partner 0.325 µg/mL): 0.953
fitness ([7]; first compound 2.5 µg/mL, partner 0.65 µg/mL): 0.912
fitness ([7]; first compound 2.5 µg/mL, partner 1.3 µg/mL): 0.92
fitness ([7]; first compound 2.5 µg/mL, partner 2.6 µg/mL): 0.86
fitness ([7]; first compound 5 µg/mL, partner 0.325 µg/mL): 0.796
fitness ([7]; first compound 5 µg/mL, partner 0.65 µg/mL): 0.748
fitness ([7]; first compound 5 µg/mL, partner 1.3 µg/mL): 0.791
fitness ([7]; first compound 5 µg/mL, partner 2.6 µg/mL): 0.809
